# Test results reported in US12692238B2, “Substituted pyridazinone herbicides” (FMC CORPORATION, priority 2020, dated 2026).
# How the values were obtained:
# Assay type in all cases: in vivo
# [1] = system: ryegrass, Italian (Italian ryegrass, Lolium multiflorum); test: Test A postemergence, ryegrass, Italian; conditions: 10 days
# In short: (§1)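 Visual injury ratings on a 0 to 100 scale (0 no effect, 100 complete control) were made 10 days after treatment, relative to untreated controls. Test chemicals in a surfactant-containing non-phytotoxic solvent were applied to soil at planting or to one- to two-leaf plants 2 to 10 cm tall.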
# [2] = system: barnyardgrass (Echinochloa crus-galli); test: Test B flooded paddy test, barnyardgrass; conditions: 250 g ai/ha, Flood; visually evaluated after 10 to 14 days
# In short: (§2)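 Plants grown to the 2-leaf stage were flooded to 3 cm above the soil, and test compounds were applied directly into the paddy water, which was held at that depth throughout. After 10 to 14 days in a greenhouse, injury was visually rated against controls on a 0–100 scale (0 no effect, 100 complete control).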
# kochia (Bassia scoparia) [3] = test: Test A postemergence, kochia; conditions: 10 days
# In short: as §1
# [4] = system: wheat (Triticum aestivum); test: Test A postemergence, wheat; conditions: 10 days
# In short: as §1
# [5] = system: oat, wild (wild oat, Avena fatua); test: Test A postemergence, oat, wild; conditions: 10 days
# Source text: (§3) Seeds of plant species selected from barnyardgrass (Echinochloa crus-galli), blackgrass (Alopecurus myosuroides), corn (Zea mays), foxtail, giant (giant foxtail, Setaria faberi), foxtail, green (green foxtail, Setaria viridis), goosegrass (Eleusine indica), kochia (Bassia scoparia), oat, wild (wild oat, Avena fatua), palmer amaranth (pigweed, palmer, Amaranthus palmeri), redroot pigweed (Amaranthus retroflexus), ragweed (common ragweed, Ambrosia artemisiifolia), ryegrass, Italian (Italian ryegrass, Lolium multiflorum), and soybean (Glycine max) were planted into a blend of loam soil and sand and treated preemergence with a directed soil spray using test chemicals formulated in a non-phytotoxic solvent mixture which included a surfactant.
# (§4) At the same time, plants selected from these crop and weed species and also wheat (Triticum aestivum), galium (catchweed bedstraw, Galium aparine) and horseweed (Erigeron canadensis) were planted in pots containing the same blend of loam soil and sand and treated with postemergence applications of test chemicals formulated in the same manner. Plants ranged in height from 2 to 10 cm and were in the one- to two-leaf stage for the postemergence treatment. Treated plants and untreated controls were maintained in a greenhouse for 10 days, after which time all treated plants were compared to untreated controls and visually evaluated for injury. Plant response ratings, summarized in Table A, are based on a 0 to 100 scale where 0 is no effect and 100 is complete control. A dash (-) response means no test result.
# [6] = system: ducksalad (Heteranthera limosa); test: Test B flooded paddy test, ducksalad; conditions: 250 g ai/ha, Flood; visually evaluated after 10 to 14 days
# In short: as §2
# [7] = system: blackgrass (Alopecurus myosuroides); test: Test A postemergence, blackgrass; conditions: 10 days
# In short: as §1
# [8] = system: goosegrass (Eleusine indica); test: Test A postemergence, goosegrass; conditions: 10 days
# Source text: as §3, §4
# [9] = system: palmer amaranth (pigweed, palmer, Amaranthus palmeri); test: Test A postemergence, palmer amaranth; conditions: 10 days
# Source text: as §3, §4
# [10] = system: goosegrass (Eleusine indica); test: Test A preemergence, goosegrass; conditions: 0 to 100 scale, 10 days
# Source text: as §3, §4
# corn (Zea mays) [11] = test: Test A postemergence, corn; conditions: 10 days
# In short: as §1
# [12] = system: horseweed (Erigeron canadensis); test: Test A postemergence, horseweed; conditions: 10 days
# Source text: as §3, §4
# soybean (Glycine max) [13] = test: Test A postemergence, soybean; conditions: 10 days
# Source text: as §3, §4
# kochia (Bassia scoparia) [14] = test: Test A preemergence, kochia; conditions: 0 to 100 scale, 10 days
# In short: as §1
# [15] = system: foxtail, giant (giant foxtail, Setaria faberi); test: Test A postemergence, foxtail, giant; conditions: 10 days
# Source text: as §3, §4
# [16] = system: blackgrass (Alopecurus myosuroides); test: Test A preemergence, blackgrass; conditions: 0 to 100 scale, 10 days
# Source text: as §3, §4
# [17] = system: foxtail, giant (giant foxtail, Setaria faberi); test: Test A preemergence, foxtail, giant; conditions: 0 to 100 scale, 10 days
# Source text: as §3, §4
# [18] = system: ryegrass, Italian (Italian ryegrass, Lolium multiflorum); test: Test A preemergence, ryegrass, Italian; conditions: 0 to 100 scale, 10 days
# In short: as §1
# [19] = system: galium (catchweed bedstraw, Galium aparine); test: Test A postemergence, galium; conditions: 10 days
# In short: as §1
# [20] = system: palmer amaranth (pigweed, palmer, Amaranthus palmeri); test: Test A preemergence, palmer amaranth; conditions: 0 to 100 scale, 10 days
# Source text: as §3, §4
# soybean (Glycine max) [21] = test: Test A preemergence, soybean; conditions: 0 to 100 scale, 10 days
# Source text: as §3, §4
# [22] = system: wheat (Triticum aestivum); test: Test A preemergence, wheat; conditions: 125 g ai/ha, 0 to 100 scale, 10 days
# [23] = system: sedge, umbrella (small-flower umbrella sedge, Cyperus difformis); test: Test B flooded paddy test, sedge, umbrella; conditions: 250 g ai/ha, Flood; visually evaluated after 10 to 14 days
# In short: as §2
# [24] = system: oat, wild (wild oat, Avena fatua); test: Test A preemergence, oat, wild; conditions: 0 to 100 scale, 10 days
# Source text: as §3, §4
# rice (Oryza sativa) = test: Test B flooded paddy test, rice; conditions: 250 g ai/ha, Flood; visually evaluated after 10 to 14 days
# In short: as §2
# [25] = system: ragweed (common ragweed, Ambrosia artemisiifolia); test: Test A preemergence, ragweed; conditions: 0 to 100 scale, 10 days
# In short: as §1
# [26] = system: ragweed (common ragweed, Ambrosia artemisiifolia); test: Test A postemergence, ragweed; conditions: 10 days
# In short: as §1
# corn (Zea mays) [27] = test: Test A preemergence, corn; conditions: 0 to 100 scale, 10 days
# Source text: as §3, §4
# [28] = 31 g ai/ha, postemergence, 0 to 100 scale (0 no effect, 100 complete control)
# [29] = Postemergence, 125 g ai/ha, 0 to 100 scale
compound,measurement,setting,value
Cc1ccc2cc3ccc(F)cc3c(-c3c(OCOC(=O)OC(C)C)c(C)nn(C)c3=O)c2c1 [Compound 17],"Plant response rating, Ryegrass, Italian",[1]; [28],70
same,"Plant response rating, Ryegrass, Italian",[1]; [29],100
same,"Plant response rating, Barnyardgrass (0 to 100 scale where 0 is no effect and 100 is complete control)",[2],70
same,"Plant response rating, Kochia",kochia (Bassia scoparia) [3]; [28],100
same,"Plant response rating, Kochia",kochia (Bassia scoparia) [3]; [29],100
same,"Plant response rating, Wheat",[4]; [28],0
same,"Plant response rating, Wheat",[4]; [29],0
same,"Plant response rating, Oat, Wild",[5]; [28],10
same,"Plant response rating, Oat, Wild",[5]; [29],30
same,"Plant response rating, Ducksalad (0 to 100 scale where 0 is no effect and 100 is complete control)",[6],85
same,"Plant response rating, Blackgrass",[7]; [28],0
same,"Plant response rating, Blackgrass",[7]; [29],10
same,"Plant response rating, Goosegrass",[8]; [28],30
same,"Plant response rating, Goosegrass",[8]; [29],50
same,"Plant response rating, Pigweed, Palmer",[9]; [28],90
same,"Plant response rating, Pigweed, Palmer",[9]; [29],100
same,"Plant response rating, Goosegrass",[10]; 31 g ai/ha,50
same,"Plant response rating, Goosegrass",[10]; 125 g ai/ha,60
same,"Plant response rating, Corn",corn (Zea mays) [11]; [28],0
same,"Plant response rating, Corn",corn (Zea mays) [11]; [29],30
same,"Plant response rating, Horseweed",[12]; [28],100
same,"Plant response rating, Horseweed",[12]; [29],100
same,"Plant response rating, Soybean",soybean (Glycine max) [13]; [28],60
same,"Plant response rating, Soybean",soybean (Glycine max) [13]; [29],80
same,"Plant response rating, Kochia",kochia (Bassia scoparia) [14]; 31 g ai/ha,90
same,"Plant response rating, Kochia",kochia (Bassia scoparia) [14]; 125 g ai/ha,90
same,"Plant response rating, Foxtail, Giant",[15]; [28],100
same,"Plant response rating, Foxtail, Giant",[15]; [29],100
same,"Plant response rating, Blackgrass",[16]; 31 g ai/ha,0
same,"Plant response rating, Blackgrass",[16]; 125 g ai/ha,20
same,"Plant response rating, Foxtail, Giant",[17]; 31 g ai/ha,100
same,"Plant response rating, Foxtail, Giant",[17]; 125 g ai/ha,100
same,"Plant response rating, Ryegrass, Italian",[18]; 31 g ai/ha,30
same,"Plant response rating, Ryegrass, Italian",[18]; 125 g ai/ha,80
same,"Plant response rating, Galium",[19]; [28],100
same,"Plant response rating, Galium",[19]; [29],100
same,"Plant response rating, Pigweed, Palmer",[20]; 31 g ai/ha,100
same,"Plant response rating, Pigweed, Palmer",[20]; 125 g ai/ha,100
same,"Plant response rating, Soybean",soybean (Glycine max) [21]; 31 g ai/ha,0
same,"Plant response rating, Soybean",soybean (Glycine max) [21]; 125 g ai/ha,0
same,"Plant response rating, Wheat",[22],0
same,"Plant response rating, Sedge, Umbrella (0 to 100 scale where 0 is no effect and 100 is complete control)",[23],85
same,"Plant response rating, Oat, Wild",[24]; 31 g ai/ha,0
same,"Plant response rating, Oat, Wild",[24]; 125 g ai/ha,0
same,"Plant response rating, Rice (0 to 100 scale where 0 is no effect and 100 is complete control)",rice (Oryza sativa),45
same,"Plant response rating, Ragweed",[25]; 31 g ai/ha,100
same,"Plant response rating, Ragweed",[25]; 125 g ai/ha,100
same,"Plant response rating, Ragweed",[26]; [28],100
same,"Plant response rating, Ragweed",[26]; [29],100
same,"Plant response rating, Corn",corn (Zea mays) [27]; 31 g ai/ha,0
same,"Plant response rating, Corn",corn (Zea mays) [27]; 125 g ai/ha,30
Cc1ccc2cc3ccc(C)cc3c(-c3c(OCOC(=O)N(C)C)c(Cl)nn(C)c3=O)c2c1 [Compound 18],"Plant response rating, Ryegrass, Italian",[1]; [28],0
same,"Plant response rating, Ryegrass, Italian",[1]; [29],0
same,"Plant response rating, Barnyardgrass (0 to 100 scale where 0 is no effect and 100 is complete control)",[2],0
same,"Plant response rating, Kochia",kochia (Bassia scoparia) [3]; [28],40
same,"Plant response rating, Kochia",kochia (Bassia scoparia) [3]; [29],70
same,"Plant response rating, Wheat",[4]; [28],0
same,"Plant response rating, Wheat",[4]; [29],0
same,"Plant response rating, Oat, Wild",[5]; [28],0
same,"Plant response rating, Oat, Wild",[5]; [29],0
same,"Plant response rating, Ducksalad (0 to 100 scale where 0 is no effect and 100 is complete control)",[6],0
same,"Plant response rating, Blackgrass",[7]; [28],0
same,"Plant response rating, Blackgrass",[7]; [29],0
same,"Plant response rating, Goosegrass",[8]; [28],0
same,"Plant response rating, Goosegrass",[8]; [29],0
same,"Plant response rating, Pigweed, Palmer",[9]; [28],30
same,"Plant response rating, Pigweed, Palmer",[9]; [29],50
same,"Plant response rating, Goosegrass",[10]; 31 g ai/ha,0
same,"Plant response rating, Goosegrass",[10]; 125 g ai/ha,0
same,"Plant response rating, Corn",corn (Zea mays) [11]; [28],0
same,"Plant response rating, Corn",corn (Zea mays) [11]; [29],0
same,"Plant response rating, Horseweed",[12]; [29],20
same,"Plant response rating, Soybean",soybean (Glycine max) [13]; [28],0
same,"Plant response rating, Soybean",soybean (Glycine max) [13]; [29],20
same,"Plant response rating, Kochia",kochia (Bassia scoparia) [14]; 31 g ai/ha,0
same,"Plant response rating, Kochia",kochia (Bassia scoparia) [14]; 125 g ai/ha,0
same,"Plant response rating, Foxtail, Giant",[15]; [28],0
same,"Plant response rating, Foxtail, Giant",[15]; [29],0
same,"Plant response rating, Blackgrass",[16]; 31 g ai/ha,0
same,"Plant response rating, Blackgrass",[16]; 125 g ai/ha,0
same,"Plant response rating, Foxtail, Giant",[17]; 31 g ai/ha,0
same,"Plant response rating, Foxtail, Giant",[17]; 125 g ai/ha,0
same,"Plant response rating, Ryegrass, Italian",[18]; 31 g ai/ha,0
same,"Plant response rating, Ryegrass, Italian",[18]; 125 g ai/ha,0
same,"Plant response rating, Galium",[19]; [28],0
same,"Plant response rating, Galium",[19]; [29],30
same,"Plant response rating, Pigweed, Palmer",[20]; 31 g ai/ha,0
same,"Plant response rating, Pigweed, Palmer",[20]; 125 g ai/ha,40
same,"Plant response rating, Soybean",soybean (Glycine max) [21]; 31 g ai/ha,0
same,"Plant response rating, Soybean",soybean (Glycine max) [21]; 125 g ai/ha,0
same,"Plant response rating, Wheat",[22],0
same,"Plant response rating, Sedge, Umbrella (0 to 100 scale where 0 is no effect and 100 is complete control)",[23],15
same,"Plant response rating, Oat, Wild",[24]; 31 g ai/ha,0
same,"Plant response rating, Oat, Wild",[24]; 125 g ai/ha,0
same,"Plant response rating, Rice (0 to 100 scale where 0 is no effect and 100 is complete control)",rice (Oryza sativa),0
same,"Plant response rating, Ragweed",[25]; 31 g ai/ha,0
same,"Plant response rating, Ragweed",[25]; 125 g ai/ha,0
same,"Plant response rating, Ragweed",[26]; [28],30
same,"Plant response rating, Ragweed",[26]; [29],100
same,"Plant response rating, Corn",corn (Zea mays) [27]; 31 g ai/ha,0
same,"Plant response rating, Corn",corn (Zea mays) [27]; 125 g ai/ha,0
